The values that follow are results of earlier work, collected in patent US6063370A, “Macromolecular complexes for drug delivery” (The Board of Trustees of the University of Illinois, priority 1998, dated 2000).

The conditions of this data set: heparin having an Mw of about 6,000.

Turning to heparin, the Bioavailability is listed as 85%.
